Test results as given in patent US11382884B2, “Method for reducing lung infection” (priority 2017, dated 2022).
Like-named read-outs stand apart in the source and are kept apart here.

How the values were obtained:
[1] = in vivo; cited from earlier work
[2] = Protocol: A single centre, randomised, double blind, crossover study of cystic fibrosis subjects is carried out. Subjects are randomised for treatment with inhaled CaEDTA or saline (placebo) 2-4 times a day for two weeks.
Iron levels, inflammatory markers, MMP/TIMP and FEV1 are monitored as above. Myeloperoxidase activity are also assayed as a measure of neutrophilic inflammation as previously described (Gaggar et al., 2011). 3-chlorotyrosine is measured as a biomarker of the potent oxidant hypochlorous acid. Levels are measured using stable isotope dilution gas chromatography with mass spectrometry (Gaggar et al., 2011). Protein carbonyls are measured as an indicator of ROS using a commercial immunoassay kit (Gaggar et al., 2011).

[3] = remark: listed apart in the source
Protocol: (§1) Subjects are then discharged and treatment continued twice a day for four weeks. Subjects are monitored for a further four weeks, bringing the total study time to 10 weeks. Sputum is collected by induction with nebulised 3% hypertonic saline at 8-10 L/min for […]. Samples are collected prior to treatment, and at 2, 6 and 10 weeks, processed according to the relevant protocol and stored at −80° C.
Expectorated sputum is stored in RNAlater®, total RNA is extracted using a Qiagen RNEasy® or similar extraction kit, converted into cDNA, and inflammatory markers are monitored using qPCR as described by Sivaneson et al. (Sivaneson, M., Mikkelsen, H., Ventre, I., Bordi, C., and Filloux, A. (2011). Two-component regulatory systems in Pseudomonas aeruginosa: an intricate network mediating fimbrial and efflux pump gene expression. Mol Microbiol 79, 1353-1366) and quantified relative to known housekeeping genes, such as actin and/or GAPDH.
(§2) Expectorated sputum is frozen directly without processing and assayed for inflammatory markers as above. As a measure of structural damage, levels of matrix metalloproteinases (MMPs) and tissue inhibitors of metalloproteinases (TIMPs) are measured using gelatin zymography and immunoassays, respectively, as previously described (Gaggar et al., Eur Respir J. 2011 38(3): 721-727; Garratt et al., Eur Respir J. 2015 46(2):384-94). The amount of iron in the sputum is quantified by ICP-MS as previously described (Hunter et al., MBio. 2013 4(4):1-8). The amount of iron-binding proteins is assessed using immunoassays. Oxidative stress is assessed by measuring glutathione (GSSG and GSH) using immunoassays as previously described (Kettle et al., Eur Respir J. 2014 44(1):122-9).

[4] = remark: listed apart in the source
Protocol: Subjects were then discharged and treatment was continued twice a day for four weeks. Patients were monitored for a further four weeks, bringing the total study time to 10 weeks. At each study visit, lung function was measured by spirometry. Data was recorded as the best of three attempts, and results were expressed as % predicted.

[5] = remark: listed apart in the source
Protocol: Subjects with CF who need treatment with dry powder tobramycin are allocated into four cohorts and receive 112 mg dry powder twice a day for 28 days. In addition, Cohort 1 (patients>18 years) receives ascending doses of dry powder CaEDTA (37.5 mg BID for 1 week; 75 mg BID for 2 weeks, 150 mg BID for 1 week). Patients in cohort 2 (>18 years) receive CaEDTA (37.5 mg BID for 1 week; 75 BID for 2 weeks; 75 mg QID for 1 week). Patients in cohort 3 (12-18 years) receive CaEDTA (37.5 mg BID for 1 week; 75 mg BID for 2 weeks, 150 mg BID for 1 week. Finally, a control cohort receives tobramycin alone for 28 days.
Sputum samples are collected weekly and assessed for markers of infection and inflammation. Bacteria are monitored by sputum colony counts. As a measure of structural damage, levels of matrix metalloproteinases (MMPs) and tissue inhibitors of metalloproteinases (TIMPs) are measured using gelatin zymography and immunoassays, respectively, as previously described (Gaggar et al., Eur Respir J. 2011 38(3): 721-727; Garratt et al., Eur Respir J. 2015 46(2):384-94). The amount of iron in the sputum is quantified by ICP-MS as previously described (Hunter et al., 2013). The amount of iron-binding proteins is assessed using immunoassays. Myeloperoxidase activity is also assayed as a measure of neutrophilic inflammation as previously described (Gaggar et al., 2011). 3-chlorotyrosine is measured as a biomarker of the potent oxidant hypochlorous acid. Levels are measured using stable isotope dilution gas chromatography with mass spectrometry (Gaggar et al., 2011). Protein carbonyls are measured as an indicator of reactive oxygen species (ROS) using a commercial immunoassay kit (Gaggar et al., 2011). Oxidative stress is assessed by measuring glutathione (GSSG and GSH) using immunoassays as previously described (Kettle et al., 2014). Gene expression of inflammatory and oxidative stress markers (e.g. IL-8, IL-6, TNFa) will also be monitored by Nanostring, and proteins will be measured by ELISA. Oxidative stress can also be measured via metabolites, such as molondialdehyde (colorimetric assay) or 8-isoprostane (ELISA). Iron will be measured by elemental analysis using laser ablation-inductively coupled plasma-mass spectrometry (LA-ICP-MS).

[6] = remark: listed apart in the source
Protocol: as §1
Expectorated sputum is stored in RNAlater, total RNA is extracted using a Qiagen RNEasy® or similar extraction kit, converted into cDNA, and inflammatory markers are monitored using qPCR as described by Sivaneson et al. (Sivaneson, M., Mikkelsen, H., Ventre, I., Bordi, C., and Filloux, A. (2011). Two-component regulatory systems in Pseudomonas aeruginosa: an intricate network mediating fimbrial and efflux pump gene expression. Mol Microbiol 79, 1353-1366) and quantified relative to known housekeeping genes, such as actin and/or GAPDH.
as §2, with “MBio 2013,” for “MBio. 2013”

[7] = in vivo; cited from earlier work; remark: listed apart in the source
P. aeruginosa [8] = settings: after two weeks of treatment, 300 mg EDTA/day nebulised with tobramycin; sputum; FIG. 25
Description: Patients were monitored for a further four weeks, bringing the total study time to 10 weeks.

P. aeruginosa [9] = settings: in vivo; cited from earlier work
[10] = EDTA group compared with placebo group

O=C(O)CN(CCN(CC(=O)O)CC(=O)O)CC(=O)O [EDTA, ethylene diamine tetraacetic acid]
effect on FEV1 [1]: no effect on FEV1
MMP/TIMP balance ([2]; compared with placebo): altered
levels of inflammatory markers ([2]; compared with placebo): reduced levels
levels of iron ([2]; compared with placebo): reduced levels
mean FEV1 ([2]; compared with placebo): increased
mean levels of carbonyls ([2]; human, in vivo): lower mean levels
mean levels of chlorotyrosine ([2]; human, in vivo): lower mean levels
myeloperoxidase activity ([2]; human, in vivo): reduced
gene expression of inflammatory markers (qPCR, sputum) [3, 10]: mean reduction
inflammatory markers in sputum [3, 10]: reduction
balance between MMPs and TIMPs ([3]; especially MMP-9 and TIMP-1): change in the balance
mean change in FEV1 ([4]; 2, 6 and 10 weeks after start of treatment, FIG. 26): clear improvement in lung function
dose dependence of effect on lung function ([4]; mg EDTA/kg body weight, FIG. 27): dose-dependent effect on lung function
inflammatory markers in sputum [5, 10]: reduction
FEV1 ([5]; compared with control patients): increase
bacterial load in sputum ([5]; compared with control patients): reduction
balance between MMPs and TIMPs ([5]; especially MMP-9 and TIMP-1): change in the balance
iron levels in sputum ([5]; human, in vivo): decrease
gene expression of inflammatory markers (qPCR, sputum) [6, 10]: mean reduction
inflammatory markers in sputum [6, 10]: reduction
FEV1 ([6]; compared with placebo (carrier only)): increase
balance between MMPs and TIMPs ([6]; especially MMP-9 and TIMP-1): change in the balance
iron levels in sputum ([6]; human, in vivo): decrease
bronchoconstriction [7]: concentration-dependent bronchoconstriction
reduction in colony counts (P. aeruginosa [8]): > 400 fold
treatment of bacterial infections by inhaled EDTA alone (P. aeruginosa [9]): does not treat bacterial infections
